Laboratory results as given in PMC8582824, “Targeting DDX3X Helicase Activity with BA103 Shows Promising Therapeutic Effects in Preclinical Glioblastoma Models” (Cancers, 2021).
Read-outs that look alike come from different tables or passages of the source.

Experiments:
[1] = system: BJ primary fibroblasts; assay: Cytotoxicity against BJ primary fibroblasts; format: cell-based
Procedure: For CellTiter 96® Aqueous One Solution Cell Proliferation Assay (MTS) (Promega, Madison, WI, USA), cells were seeded at 5 × 10^3 per well in 96-well plates in quadruplicate together a control with no cells to evaluate the background. After 24 h, the culture medium was removed, and fresh medium containing increasing concentrations of chemical compounds was added to cells. The fixed final concentrations were 0.1 μM, 1 μM, 10 μM, and 100 μM. DMSO was the vehicle used for dilution of the compounds, and its final concentration on cells was less than 0.2%. Medium-only containing wells were included as controls. Cells were incubated with compounds at different concentrations for 72 h, then, 20 µL of CellTiter 96® AQueous One Solution Reagent was added into each well. After 3 h at 37 °C in a humidified, 5% CO2 atmosphere, the absorbance at 492 nm was recorded using an EZREAD400 (Biochrom, Cambridge, United Kingdom) plate reader. The average 490 nm absorbance from the “no cell” control wells was subtracted from all other values to yield background-corrected absorbance. Dose–response curves and CC50 values have been calculated by plotting the absorbance data as a function of inhibitor concentrations and fitting the data by least-squares nonlinear regression, according to the method of Marquardt–Levenberg, with the computer program GraphPad Prism 6.0.
Cells were incubated with a scalar concentration of DDX3X inhibitors, and after 72 h of treatment, cell viability was assessed by cytotoxicity assay. […] Compounds 4, 6, and BA103 were also evaluated against BJ primary fibroblasts; compound 4 has a cytotoxicity value of 84.7 μM; on the contrary, compounds 6 and BA103 were not toxic up to 200 μM concentration. This further excluded a possible nonspecific cytotoxic effect. […] Due to its interesting profile, compound BA103 was further tested against additional pulmonary (A549), breast (MDA-MB-231), colorectal (HCT-116), osteosarcoma (U2OS), rhabdomyosarcoma (RD18), GBM (DBTRG, U87, and U251) and medulloblastoma (DAOY) cancer cell lines.

[2] = target: T1, ATPase DDX3X (Homo sapiens, UniProt O00571); assay: DDX3X ATPase activity inhibition; format: biochemical; details: for IC50: >200 = less than 20% inhibition at 200 µM, highest concentration tested, read-out: ATPase DDX3X IC50 ± SD
T1 construct: Recombinant his-tagged human full length DDX3X; His tag; made in house; host or cells: ShuffleT7 E. coli
Excerpt: To confirm the proposed mechanism of action and the selectivity of our compounds for the helicase binding site, we tested the capability of BA103 to inhibit the ATPase activity of DDX3X and the helicase activity of DDX1, which is another human member of the DEAD-box family.

[3] = PK and biodistribution in BALB/c mice; format: in vivo; details: for half-life: 50 mg/kg
Procedure: Figure 8 PK and biodistribution of BA103 in BALB/c mice at the single dose of 50 mg/kg i.p. (A) Plasmatic distribution and PK parameters. Concentration levels ± SD of BA103 in (B) kidneys, (C) liver, and (D) brain. TEXT PRINTED IN THE PICTURE: (A) no label printed: t1/2 (min): 299.6; Cmax (μg/ml): 18.2; AUC 0-t (μg/ml*min): 1817.6; AUC 0-inf_obs (μg/ml*min): 1850.7; Vz/F_obs ((mg/kg)/(μg/ml)): 11.7; Cl/F_obs ((mg/kg)/(μg/ml)/min): 0.1 DOUBTS OF THE COPYIST ABOUT THIS PICTURE: Panel A table: the picture prints no substance label / Panel A table, Vz/F_obs and Cl/F_obs: the underscore may be hidden by the table line (could be 'Vz/F obs', 'Cl/F obs')
Thus, preliminary PK and biodistribution studies were performed on two groups of BALB/c mice (CTRL and BA103-treated) at the single intraperitoneal (i.p.) dose of 50 mg/kg. BA103 was slowly eliminated from plasma, with a half time (t1/2) of about 5 h. […] Even if the PK analysis was conducted in healthy mice, with an intact BBB, the data are of great importance, since the majority of drugs are unable to reach the tumor environment due to their low permeability.

[4] = system: U87 and U251 cells; assay: Transwell migration assay in GBM cells; format: cell-based; details: 48 h of incubation, vs untreated cells
Procedure: Exponential growing cells were treated with the inhibitor or vehicle for 48 h and then trypsinized, washed twice with PBS, rinsed in complete medium, incubated at 37 °C for 30 min to reconstitute the membrane structures, washed again for FCS removal, and then added to the upper compartment of collagen-coated (PTFE) Transwell insert (Corning Inc., Corning, NY, USA). Cells were allowed to migrate through coated filters for 6 h. The cells attached on the lower membrane surfaces were stained with 0.1% crystal violet w/v in 0.1 mol/L borate, pH 9.0, and 2% ethanol v/v for 20 min at room temperature. Cells were counted at 400× magnification in standard optical microscopy, and the average number of cells per field in 5 random fields was recorded. Triplicate filters were used, and the experiments were repeated at least two times.
To better characterize the antiproliferative effect of BA103, we performed further biological evaluation using GBM cell lines. The expression of DDX3X was evaluated in U87 and U251 cell lines by Western blot analysis in comparison with HepG2 cells, resulting in basally detectable mainly in U87 cells (Figure 6A). […] Thus, also according to the importance of β-catenin signaling in GBM, we analyzed whether the expression of β-catenin in U87 and U251 cells could be associated with DDX3X activity. […]

[5] = BALB/c, mouse, ip, plasma, single dose 50 mg/kg i.p.

T1 sequence (O00571 whole entry): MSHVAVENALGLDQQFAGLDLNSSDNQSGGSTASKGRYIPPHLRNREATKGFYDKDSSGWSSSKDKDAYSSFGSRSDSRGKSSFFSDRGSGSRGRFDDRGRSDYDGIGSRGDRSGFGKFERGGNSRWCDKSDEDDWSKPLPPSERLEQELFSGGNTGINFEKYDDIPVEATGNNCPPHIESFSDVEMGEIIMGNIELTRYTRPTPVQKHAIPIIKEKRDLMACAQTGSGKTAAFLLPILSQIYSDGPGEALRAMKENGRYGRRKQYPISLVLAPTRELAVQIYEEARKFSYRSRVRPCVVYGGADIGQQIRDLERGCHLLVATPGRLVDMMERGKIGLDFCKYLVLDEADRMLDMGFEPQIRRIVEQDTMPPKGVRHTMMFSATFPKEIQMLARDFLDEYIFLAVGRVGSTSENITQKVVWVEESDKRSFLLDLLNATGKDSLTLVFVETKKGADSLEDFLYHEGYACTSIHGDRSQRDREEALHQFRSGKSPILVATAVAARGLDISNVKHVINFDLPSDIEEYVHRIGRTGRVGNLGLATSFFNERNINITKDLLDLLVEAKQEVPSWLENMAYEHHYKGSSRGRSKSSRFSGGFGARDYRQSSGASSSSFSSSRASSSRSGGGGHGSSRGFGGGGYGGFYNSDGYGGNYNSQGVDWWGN

With `CCCCc1cn(-c2ccc(NC(=O)Nc3ccccc3C(F)(F)F)cc2)nn1` [BA103, 1-(4-(4-Butyl-1H-1,2,3-triazol-1-yl)phenyl)-3-(2-(trifluoromethyl)phenyl)urea] the cytotoxicity value [1] was over 200 µM, the IC50 [2] was over 200 µM and the “inhibition of the ATPase activity of DDX3X” value ([2]; any compound concentration) was “no inhibition”. The AUC(0-t) [3, 5] was 30.3 µg·h/mL, the Cmax [3, 5] was 18.2 µg/mL and the AUC(0-inf) ([3]; BALB/c, mouse, ip, plasma, single dose 50 mg/kg i.p., read-out: AUC 0-inf_obs (converted)) was 30.8 µg·h/mL. It also gave a half-life ([3]; BALB/c, mouse, plasma, ip, plasma, single dose 50 mg/kg i.p., read-out: t1/2) of 4.99 h, a half-life ([3]; BALB/c, mouse, plasma, ip, single dose 50 mg/kg i.p., read-out: half time (t1/2) of elimination from plasma (converted)) of about 5 h and a CL/F ([3]; BALB/c, mouse, plasma, ip, single dose 50 mg/kg i.p.) of 6 L/h/kg. For the same compound, the Vd/F ([3]; BALB/c, mouse, plasma, ip, single dose 50 mg/kg i.p., read-out: Vz/F_obs) was 11.7 L/kg, the “brain distribution / blood–brain barrier crossing” value ([3]; healthy mice, 50 mg/kg i.p.) was “ability to cross the blood–brain barrier” and the “migration through collagen-coated Transwell filters” value [4] was “reduced ability to migrate”.

For `CCCCn1nnc(-c2ccc(NC(=O)Nc3ccccc3C(F)(F)F)cc2)n1` [Compound 6, 1-(4-(2-Butyl-2H-tetrazol-5-yl)phenyl)-3-(2-(trifluoromethyl)phenyl)urea], the cytotoxicity value [1] was over 200 µM.

Work on `CCCCc1cn(-c2ccc(NC(=O)Nc3ccccc3C)cc2)nn1` [Compound 1, reference compound] yielded an IC50 [2] of over 200 µM.

With `CCCCc1nnc(-c2ccc(NC(=O)Nc3ccccc3C(F)(F)F)cc2)[nH]1` [Compound 4, 1-(4-(5-Butyl-4H-1,2,4-triazol-3-yl)phenyl)-3-(2-(trifluoromethyl)phenyl)urea] the cytotoxicity value [1] was 84.7 µM.
